Measured values taken from patent US20160347852A1, “Combination therapy of an anti-CD20 antibody with a Bcl-2 inhibitor and a MDM2 inhibitor” (Hoffmann-La Roche Inc., priority 2015, published 2016).

What was measured:
[1] = system: human Z138 mantle cell lymphoma cell line; test: Antitumor activity of combined treatment, Z138 mantle cell lymphoma xenograft (Example 2); assay type: in vivo, SCID beige mice; details: for Tumor growth inhibition (TGI) on day 32: SCID beige mice, RO5072759 0.5 mg/kg i.p. q7d, GDC-0199 100 mg/kg p.o. daily, RG7388 100 then 80 mg/kg p.o. daily, day 32 after tumor cell inoculation; for Tumor-free animals on Day 125: number of animals out of 9-10 per group; for Median time to event (Days to reach TV of 1500 mm^3): time-to-event analysis until day 125; for Number of animals with reduced tumor growth or non-responder / Number of animals with tumor regrowth: until day 125
Method: Type II anti-CD20 antibody B-HH6-B-KV1 GE (=humanized B-Ly1, glycoengineered B-HH6-B-KV1, see WO 2005/044859 and WO 2007/031875) was provided as stock solution (c=9.4 mg/ml) from GlycArt, Schlieren, Switzerland, in histidine, trehalose and polysorbate 20 buffer. The antibody was diluted with PBS prior to in-vivo application. The Bcl-2 inhibitor GDC-0199 was obtained from Genentech Inc., CA, USA. MDM2(4) antagonist RG7388 (RO5503781) was provided by the Small Molecule Process Research and Development unit, Hoffmann-La Roche, Basel, Switzerland.
The human Z138 mantle cell lymphoma cell line was cultured in DMEM supplemented with 10% fetal bovine serum (PAA Laboratories, Austria) and 2 mM L-glutamine at 37° C. in a water-saturated atmosphere at 5% CO2. For in-vivo xenograft experiments the cells were co-injected with Matrigel.
Female SCID beige mice, age 4-5 weeks at arrival (purchased from Charles River, Sulzfeld, Germany), were maintained in the quarantine part of the animal facility for one week and afterwards under specific-pathogen-free condition with daily cycles of 12 h light/12 h darkness according to guidelines (GV-Solas; Felasa; TierschG). The experimental study protocol was reviewed and approved by Roche and the local government (Regierung von Oberbayern; registration no. 55.2-1-54-2531.2-26-09). Diet food (KLIBA NAFAG 3807) and water (filtered) were provided ad libitum.
Animals were monitored daily for clinical symptoms and detection of adverse effects. During the experiment the body weight of animals was checked two times a week and tumor volume was measured by caliper.
Animal treatment started at the day of randomization 18 days after tumor cell inoculation. Humanized type II anti-CD20 antibody RO5072759 B-HH6-B-KV1 GE (obinutuzumab) was administered as single agent i.p. q7d once weekly (day 18, 25, 32) for 3 weeks at a dosage of 0.5 mg/kg. The bcl-2 inhibitor GDC-0199 was given p.o. once daily (from day 18 to day 36) over 19 days at a dosage of 100 mg/kg. The MDM2 antagonist RG7388 (RO5503781) was given p.o. once daily over 5 days at a dosage of 100 mg/kg (active compound) from day 18 to day 22 and was administered over 12 days at a dosage of 80 mg/kg (active compound) from day 25 to day 36. There was no treatment on day 23 and 24. In the combination groups, RO5072759 B-HH6-B-KV1 GE, MDM2(4) and GDC-0199 were administered at the same dosages and on the same days. The corresponding vehicle was administered on the same days.
To elucidate the long term effects of the various treatments a time-to-event analysis was performed until day 125 after tumor cell inoculation.

[2] = system: DOHH2 DLBCL xenografts (CD20+, p53 wt); test: In vivo antitumor efficacy against DOHH2 DLBCL xenografts (Example 1); details: s.c. DOHH-2 xenografts, female SCID beige mice; for TGI % (tumor growth inhibition compared to control): RG7388 30 mg/kg oral, obinutuzumab 10 mg/kg ip once weekly, GDC-0199 100 mg/kg oral, treatment days 13-29
Method: The in vivo antitumor efficacy of the CD20 specific antibody obinutuzumab in combination with bcl-2 inhibitor GDC-0199 and MDM2 inhibitor RG7388 was evaluated against DOHH2 DLBCL xenografts (CD20+, p53 wt). As used herein, obinutuzumab is used synonymously with RO5072759 and B-HH6-B-KV1 GE. As used herein, said bcl-2 inhibitor GDC-0199 is the following chemical compound: 4-(4-{[2-(4-chlorophenyl)-4,4-dimethylcyclohex-1-en-1-yl]methyl}piperazin-1-yl)-2-(1H-pyrrolo[2,3-b]pyridin-5-yloxy)-N-({4-[(tetrahydro-2H-pyran-4-ylmethyl)amino]-3-[(trifluoromethyl)sulfonyl]phenyl}sulfonyl)benzamide or a salt or a polymorphic form thereof. As used herein, said MDM2 inhibitor RG7388 is the following chemical compound 4-{[(2R,3S,4R,5S)-4-(4-Chloro-2-fluoro-phenyl)-3-(3-chloro-2-fluoro-phenyl)-4-cyano-5-(2,2-dimethyl-propyl)-pyrrolidine-2-carbonyl]-amino}-3-methoxy-benzoic acid or a salt or a polymorphic form thereof.
CD20 antibody obinutuzumab was provided as stock solution from Roche, Basel, Switzerland. Antibody buffer included histidine. Antibody solution was diluted appropriately in buffer from stock prior injections. MDM2(4) inhibitor was provided as SDP formulation from Roche, Basel, Switzerland and resuspended prior to use. Bcl-2 inhibitor GDC-0199 was provided by GNE, SSF, USA and formulated prior to use.
The original DOHH-2 human B cell NHL cell line (DLBCL) was established at the NCI and purchased from ATCC (Manassas, Va., USA). Expansion of tumor cells for the transplantation was done by the TAP CompacT CellBase Cell Culture Roboter according to the protocol. Tumor cell line was routinely cultured in RPMI 1640 medium, FCS 10% and L-Glutamin 2 mM at 37° C. in a water-saturated atmosphere at 5% CO2. Culture passage was performed with trypsin/EDTA 1× splitting twice/week and passage 2 used for transplantation.
Female SCID beige mice, age 6-7 weeks at arrival, maintained under specific-pathogen-free condition with daily cycles of 12 h light/12 h darkness according to committed guidelines. Experimental study protocol was reviewed and approved by local government. After arrival animals were maintained in animal facility for one week to get accustomed to new environment and for observation. Continuous health monitoring was carried out on regular basis. Diet food and autoclaved water were provided ad libitum.
Animals were controlled daily for clinical symptoms and detection of adverse effects. For monitoring throughout the experiment body weight of animals was documented.
Animal treatment started after randomisation when median tumor size was about 200 mm^3. CD20 antibody obinutuzumab was administered as single agent and in combination at 10 mg/kg ip once weekly on days 13, 21 and 27. The corresponding vehicle was administered on the same days. MDM2(4) inhibitor RG7388 oral treatment at 30 mg/kg was done as single agent and in combination on days 13-17, 20-24 and 27-29. Finally, bcl-2 inhibitor GDC-0199 was given orally at 100 mg/kg on days 13-29 as single agent and in combination.
DOHH-2 human Diffuse Large B-cell Lymphoma (DLBCL) cells (CD20+, p53 wt) were s.c. inoculated with Matrigel onto female SCID beige mice. Tumor bearing mice were randomized 13 days later to the indicated study groups and compound treatment initiated. Tumor bearing animals were treated with vehicle control, with the MDM2(4) inhibitor RO5503781 (RG7388) at 30 mg/kg, with the anti-CD20 antibody obinutuzumab at 10 mg/kg or with bcl-2 inhibitor GDC-0199 (100 mg/kg) as single agent. Furthermore one study group received the triple combination of MDM2 inhibitor RG7388, CD20 antibody obinutuzumab and bcl-2 inhibitor GDC-0199. […] A similar efficacy was noticed after treatment with the bcl-2 inhibitor GDC-0199 (60% TGI), whereas the best efficacy as single agent was achieved after treatment with the anti-CD20 antibody obinutuzumab reaching nearly tumor stasis (TGI 90%).

Compound | Tumor growth inhibition (TGI) on day 32 [1] | Tumor-free animals on Day 125 [1] | Median time to event (Days to reach TV of 1500 mm^3) [1] | Number of animals with reduced tumor growth or non-responder [1] | Number of animals with tumor regrowth [1] | npTCR [2] | TGI % (tumor growth inhibition compared to control) [2]
CC1(C)CCC(CN2CCN(c3ccc(C(=O)NS(=O)(=O)c4ccc(NCC5CCOCC5)c([N+](=O)[O-])c4)c(Oc4cnc5[nH]ccc5c4)c3)CC2)=C(c2ccc(Cl)cc2)C1 [GDC-0199, 4-(4-{[2-(4-chlorophenyl)-4,4-dimethylcyclohex-1-en-1-yl]methyl}piperazin-1-yl)-N-({3-nitro-4-[(tetrahydro-2H-pyran-4-ylmethyl)amino]phenyl}sulfonyl)-2-(1H-pyrrolo[2,3-b]pyridin-5-yloxy)benzamide, reference compound] | 53% | 0 | 29 days | 10 | 0 | 0.43 | 60%
COc1cc(C(=O)O)ccc1NC(=O)[C@@H]1N[C@@H](CC(C)(C)C)[C@](C#N)(c2ccc(Cl)cc2F)[C@H]1c1cccc(Cl)c1F [RG7388, 4-{[(2R,3S,4R,5S)-4-(4-Chloro-2-fluoro-phenyl)-3-(3-chloro-2-fluoro-phenyl)-4-cyano-5-(2,2-dimethyl-propyl)-pyrrolidine-2-carbonyl]-amino}-3-methoxy-benzoic acid] | 67% | 0 | 30 days | 9 | 0 | 0.48 | 56%
obinutuzumab: afucosylated glyco-engineered humanized B-Ly1 type II anti-CD20 IgG1 antibody, VH SEQ ID NO:7 (B-HH6), VL SEQ ID NO:20 (B-KV1) | 47% | 2 | 28 days | 8 | 0 | 0.17 | 90%
